{
  "source": "patent US20060270727A1",
  "about": "“Small molecule therapeutics and uses therefor” (priority 2005, published 2006)",
  "key": {"[1]": {"biological_target": "GAA·TTC duplex repeats in the frataxin gene; radiolabeled PCR product containing a (GAA)6 sequence", "experiment": "Quantitative DNase I footprinting on (GAA)6 DNA", "assay_type": "binding", "settings": "for sequence specificity: DNase I footprinting; for binding affinity for duplex GAA•TTC repeat DNA, in words: compared with FA1", "source_text": "Targeting GAA Repeat DNA with Polyamides. β-Alanine linked polyamides FA1-FA6 were synthesized (see Example 6) with sequence, theoretical DNA binding site, theoretical DNA binding site SEQ ID NO: ______) and binding affinity as shown in Table 1. […] Those of skill in the art will recognize that this value may be an underestimation of the affinity of this molecule for GAA repeat DNA since the KD measurements are limited by a minimum DNA concentration of ˜2 pM in the binding reaction. Radiolabeling of nucleic acid incorporated γ^32P ATP and polynucleotide kinase used standard procedures.\nPolyamlde Synthesis and Characterization. Polyamides were synthesized by solid phase methods (Urbach & Dervan, Id.; Baird & Dervan, 1996, J. Am. Chem. Soc. 118:6141-6146) and their identity and purity verified by MALDI-TOF MS and analytical HPLC, using methods well known in the art. Fluorescent conjugates were prepared by coupling BODIPY (Molecular Probes) to the carboxyl-terminus (Best et al., 2003, Proc. Natl. Acad. Sci. U.S.A. 100:12063-12068). Binding affinities for match and mismatch sites were determined by quantitative DNase I footprinting (Trauger & Dervan, Id). A plasmid harboring six GAA repeats was constructed by cloning the oligonucleotide\nin the pCR2.1 TOPO vector (Invitrogen, Calif.), and a 117 bp singly end-labeled PCR product was generated from this plasmid with the following oligonucleotides:\nwhere the second oligonucleotide was labeled with γ-^32P ATP and polynucleotide kinase, using standard procedures, to generate a PCR product labeled on the GAA strand. A 204 bp singly end-labeled PCR product was derived from plasmid pMP142 DNA, containing 33 GAA repeats (Ohshima et al., Id.), with following oligonucleotides: […]"}, "[2]": {"tested_on": "frataxin mRNA in GM15850 FRDA lymphoid cell line", "experiment": "qRT-PCR of frataxin mRNA, FRDA cell line", "assay_type": "cell-based, human", "settings": "GM15850 FRDA cell line; 7 days incubation", "source_text": "GAA Specific Polyamides Up Regulate Frataxin mRNA and Protein. To assess whether polyamides alleviate transcription inhibition caused by expanded GAA repeats in the frataxin gene, quantitative real time/reverse transcriptase PCR (qRT-PCR) was used to monitor frataxin mRNA levels in the GM15850 and GM15851 lymphoid cell lines described above; levels of glyceraldehyde 3-phosphate dehydrogenase (GAPDH) mRNA were used as an internal control for each RNA sample; see Example 8. No differences in GAPDH were found between the two cell lines. […] No changes in frataxin mRNA levels were observed on shorter incubation times.\nCell Culture. Epstein Barr virus transformed lymphoblast cell lines GM15850 from a FRDA patient (alleles with 650 and 1030 GAA repeats in the frataxin gene, from the Coriell Cell Repository, Camden, N.J.), and GM15851 from an unaffected sibling (normal range of repeats), were propagated in RMPI 1640 medium with 2 mM L-glutamine and 15% fetal bovine serum at 37° C. in 5% CO2. Cell growth and morphology were monitored by phase contrast microscopy and viability by trypan blue exclusion and an ATP assay (ApoSENSOR™, BioVision). Polyamides were added directly to the culture medium in PBS. Nuclear localization of the polyamides was verified by deconvolution microscopy, by methods well known in the art (see e.g., Dudouet et al., Chem. Biol., 2003, 10: 859-867).\nReal-Time Quantitative RT-PCR. Real-time quantitative RT-PCR (qRT-PCR) analysis was performed essentially as previously described (Chuma, et al., 2003, Hepatology 37:198-207), using the following primers for the frataxin gene: […]\nRNA was standardized by quantification of GAPDH mRNA (Pattyn et al., 2003, Nucleic Acids Res. 31:122-123), and all values are expressed relative to GAPDH. qRT-PCR was performed using iScript One-Step RT-PCR kit with SYBR green (Biorad). Statistical analysis was performed on three independent quantitative RT-PCR experiments for each RNA sample."}, "[3]": {"tested_on": "mismatch DNA sequence 5′-GGAGGAGGTGGAGGAGGA-3′ from the erbB2 (Her2-neu) promoter", "experiment": "DNase I footprinting on mismatch DNA", "assay_type": "binding, human", "settings": "polyamide concentrations up to 100 nM", "method": "Two additional molecules, FA5 [(ImPyβ)4ImβDp] and FA6 [(ImPyβ)5ImβDp], were synthesized in order to target longer regions of GAA repeats in duplex DNA; i.e., (AAG)5 (SEQ ID NO: ______) and (AAG)6 (SEQ ID NO: ______) respectively. […] As another test for sequence specificity, footprinting experiments with FA1 and FA3 and a radiolabeled DNA fragment containing a mismatch DNA sequence 5′-GGAGGAGGTGGAGGAGGA-3′ (SEQ ID NO: ______) were performed.\nThe first oligonucleotide shown was radiolabeled as above to generate a PCR product labeled on the GAA strand. A 150 bp PCR product containing a (GGA•TCC)6 mismatch sequence was derived from the erbB2 (Her2-neu) promoter in human genomic DNA with the following oligonucleotides: […]"}, "[4]": {"tested_on": "sticky DNA in plasmid pRW4886, two tracts of (GAA)176", "experiment": "Sticky DNA disruption, EcoNI digestion and agarose gel", "assay_type": "biochemical", "settings": "37° C., 1 hr", "method": "Influence of Polyamides on Sticky DNA Conformation. Plasmid pRW4886, which contains two tracts of (GAA)176 (SEQ ID NO: ______) in a direct repeat orientation (Vetcher et al., 2002b, Id)., and forms sticky DNA, was treated with polyamides at concentrations of 0-50 μM at 37° C. for 1 hr. Restriction digestion with EcoNI following the polyamide incubation enabled visualization of the presence or absence of an EcoNI cleaved sticky DNA band that runs with decreased mobility compared to the linearized plasmid on 1% agarose gels. Quantitation was by densitometric analysis using Fluor Chem version 3.04 (Alpha Innotech Corp).\nThe capacity of sequence-specific polyamides to disrupt the intramolecular sticky DNA structure formed by GAA repeat tracts was investigated. Plasmids harboring the sticky DNA structure are visualized by gel electrophoresis after restriction endonuclease cleavage, by methods well known in the art. […] Plasmid pRW4886, which contains two tracts of (GAA)176 (SEQ ID NO: ______) in a direct repeat orientation (Vetcher et al., 2002b, Id.), was incubated with each of polyamides FA1, FA2, FA3 and FA4 at concentrations ranging from 0-50 μM. The polyamide-bound DNA was then digested with EcoNI and subjected to electrophoresis on 1% agarose gels to determine the amount of EcoNI cleaved sticky DNA retarded band present. Incubation of pRW4886 DNA with FA3 shifted the equilibrium from a maximum amount of sticky DNA to a complete loss of the EcoNI cleaved sticky DNA retarded band at a concentration of 50 nM. […] For FA1, a 1 μM concentration was needed to dissociate the DNA-DNA structure-forming region. […] Since sticky DNA inhibits transcription (Ohshima et al., Id.; Sakamoto et al., 2001, J. Biol. Chem. 276:27171-27177), and since the polyamides destabilize this conformation by shifting the structural equilibrium to duplex B-type DNA, it is highly likely that the increases in frataxin mRNA observed with polyamide FA1 are due to this structural transition."}, "[5]": {"settings": "quantitative DNase I footprinting, mean and standard deviation, minimum of two determinations, read-out: Binding affinity (KD)"}},
  "note": "Like-named read-outs stand apart in the source and are kept apart here.",
  "data": [
    {"smiles": "CN(C)CCCNC(=O)CCNC(=O)c1nc(NC(=O)CCNC(=O)c2cc(NC(=O)c3nc(NC(=O)CCNC(=O)c4cc(NC(=O)c5nc(NC(=O)CCNC(=O)c6cc(NC(=O)c7nccn7C)cn6C)cn5C)cn4C)cn3C)cn2C)cn1C", "note": "[FA3, (ImPyβ)3ImβDp]", "values": [
      {"measurement": "Kd", "setting": "[1]; footprinting at low (~2 pM) DNA concentrations, may underestimate affinity, read-out: KD", "value": "~0.003", "unit": "nM"},
      {"measurement": "Kd", "setting": "[1]; [5]", "value": "0.003 ± 0.001", "unit": "nM"},
      {"measurement": "effect on frataxin mRNA levels, in words", "setting": "[2]", "value": "did not increase frataxin mRNA levels"},
      {"measurement": "binding to mismatch DNA sequence", "setting": "[3]", "value": "Neither FA1 nor FA3 bound this DNA sequence"},
      {"measurement": "concentration for complete loss of the EcoNI cleaved sticky DNA retarded band", "setting": "[4]", "value": 50, "unit": "nM"}
    ]},
    {"smiles": "CN(C)CCCNC(=O)CCNC(=O)c1cc(NC(=O)CCNC(=O)c2nc(NC(=O)c3nc(NC(=O)CCNC(=O)c4cc(NC(=O)c5nc(NC(=O)CCNC(=O)c6cc(NC(=O)c7nccn7C)cn6C)cn5C)cn4C)cn3C)cn2C)cn1C", "note": "[FA4, (ImPyβ)2ImImβPyβDp]", "values": [
      {"measurement": "Kd", "setting": "[1]; (GAA)6 DNA, values in text, read-out: apparent dissociation constant (KD)", "value": 2, "unit": "nM"},
      {"measurement": "binding affinity, times less than FA3", "setting": "[1]; FA4 vs FA3", "value": "~1000", "unit": "times"},
      {"measurement": "reduction of binding affinity vs match polyamide", "setting": "[1]; mismatch vs match polyamide (FA2 vs FA1, FA4 vs FA3)", "value": "three orders of magnitude"},
      {"measurement": "concentration needed to affect or dissociate sticky DNA", "setting": "[4]", "value": "≥ 5", "unit": "µM"}
    ]},
    {"smiles": "CN(C)CCCNC(=O)CCNC(=O)c1nc(NC(=O)CCNC(=O)c2cc(NC(=O)c3nc(NC(=O)CCNC(=O)c4cc(NC(=O)c5nc(NC(=O)CCNC(=O)c6cc(NC(=O)c7nc(NC(=O)CCNC(=O)c8cc(NC(=O)c9nccn9C)cn8C)cn7C)cn6C)cn5C)cn4C)cn3C)cn2C)cn1C", "note": "[FA5, (ImPyβ)4ImβDp]", "values": [
      {"measurement": "sequence specificity", "setting": "[1]", "value": "less specific than FA1 or FA3"},
      {"measurement": "binding affinity for duplex GAA•TTC repeat DNA, in words", "setting": "[1]", "value": "comparable to that of FA1"},
      {"measurement": "Kd", "setting": "[1]; [5]", "value": "0.2 ± 0.02", "unit": "nM"}
    ]},
    {"smiles": "CN(C)CCCNC(=O)CCNC(=O)c1nc(NC(=O)CCNC(=O)c2cc(NC(=O)c3nc(NC(=O)CCNC(=O)c4cc(NC(=O)c5nc(NC(=O)CCNC(=O)c6cc(NC(=O)c7nc(NC(=O)CCNC(=O)c8cc(NC(=O)c9nc(NC(=O)CCNC(=O)c%10cc(NC(=O)c%11nccn%11C)cn%10C)cn9C)cn8C)cn7C)cn6C)cn5C)cn4C)cn3C)cn2C)cn1C", "note": "[FA6, (ImPyβ)5ImβDp]", "values": [
      {"measurement": "sequence specificity", "setting": "[1]", "value": "less specific than FA1 or FA3"},
      {"measurement": "binding affinity for duplex GAA•TTC repeat DNA, in words", "setting": "[1]", "value": "comparable to that of FA1"},
      {"measurement": "Kd", "setting": "[1]; [5]", "value": "0.22 ± 0.08", "unit": "nM"}
    ]},
    {"smiles": "CN(C)CCCNC(=O)CCNC(=O)c1nc(NC(=O)CCNC(=O)c2cc(NC(=O)c3nccn3C)cn2C)cn1C", "note": "[ImPyβImβDp]", "values": [
      {"measurement": "binding affinity", "setting": "[1]; six bp sequence 5′-AAGAAG-3′", "value": "low μM"}
    ]}
  ]
}
